# Reference: US20240216344A1, “THIAZOLIDINEDIONE ANALOGS FOR THE TREATMENT OF NAFLD AND METABOLIC DISEASES” (Cirius Therapeutics, Inc., priority 2019, published 2024)
# What was measured:
# [1] = test system: patients with biopsy-confirmed NASH; assay: EMMINENCE post hoc multivariable models and canonical correlation of biomarker changes with histological changes; design: species or system human
# Description: EMMINENCE was a phase 2 study examining the effects of three doses of MSDC-0602K versus placebo on liver histology in 392 patients with biopsy-confirmed nonalcoholic steatohepatitis (NASH). Patients provided written informed consent, and the protocol and consent form were approved by applicable institutional review boards. Baseline and 12-month biopsies were scored by a single expert hepatopathologist using the NASH Clinical Research Network (CRN) scoring criteria. Fasting blood samples for routine clinical chemistry as well as frozen samples for biomarker assays were analyzed centrally. In this post hoc analysis, multivariable models and partial canonical correlation were used to examine the associations between changes in biomarkers and changes in histological scores from baseline to 12 months in the 339 patients with paired biopsies. The trial was registered on ClinicalTrials.gov (NCT02784444).
# Individual patient data from the 339 subjects with paired biopsy results in EMMINENCE were used to construct univariable and multivariable ANCOVA models for the 12-month change in each histological component (steatosis, inflammation, ballooning, and fibrosis). Candidate predictors included age, sex, type 2 diabetes (T2D) history, and baseline and 12-month changes in weight and laboratory parameters (liver injury markers, cholesterols, insulin sensitivity markers, ELF, CK-18). Non-linearity of the association between each continuous predictor and each outcome was examined by assessing the significance of the non-linear components of a restricted cubic spline transformation for each predictor. Appropriate transformations (quadratic, cubic, linear spline, log 2) were applied where deemed necessary based on review of the Akaike's Information Criterion and visual examination of plots of the predicted outcomes against each predictor. Due to issues with estimating the associations when severe multicollinearity exists between predictors in the model, ALT (collinear with AST) and waist circumference (collinear with weight) were excluded as candidate predictors. Multiple imputation with ten imputed datasets and assuming multivariate normality was used to handle missing values. The occurrence of missing data for any of the predictors was relatively low ([…] missing one or more predictor values). Rubin's algorithm was used for average estimates for predictors across the imputed datasets. Backwards selection was used for each outcome, with predictors remaining in a majority of the ten imputed datasets at the 0.05 significance level (>5) included in the final model. Each model was adjusted for the baseline value of the outcome. If a change from baseline predictor was included in the final model, then the baseline value for the parameter was also included in the final model.
# A second multivariable model was fit for each outcome including the predictors found prognostic for any of the biopsy component changes. A multivariable ANCOVA model that included these predictors was run for NAS (the sum of ballooning, inflammation, and steatosis scores). Multivariable logistic regression models that included these predictors were also run for the binary outcomes of NASH resolution without worsening of fibrosis and fibrosis improvement without worsening of NASH.
# A partial canonical correlation using individual patient data from EMMINENCE examined the correlation of changes in weight, AST, HbA1c, GGT, CK-18 (taken together) with changes in ballooning, inflammation, steatosis, and fibrosis (taken together) adjusted for those baseline variables prognostic of any of the histological feature changes in the multivariable models in the 306 subjects with complete observed data for the variables involved. This analysis results in “canonical variates” that are linear combinations of the original sets of variables weighted in such a way as to maximize the correlation between them. […]
# [2] = test system: subjects with biopsy proven NASH with fibrosis and no cirrhosis; assay: EMMINENCE Phase 2b trial, interim analysis at six months; format: in vivo, human; settings: for Peripheral edema present: 6 months
# Description: Detailed Description: This is a randomized, double-blinded study of three doses of MSDC-0602K or placebo given orally once daily to subjects with biopsy proven NASH with fibrosis and no cirrhosis. Visits to the clinic will be at baseline, 1, 2, 3, 6, 9, and 12 months, with one 2-week follow-up visit. Safety will be assessed by monitoring of vital signs, 12 lead electrocardiogram (ECG), physical examinations, safety labs, and adverse events (AEs).
# An interim analysis of the EMMINENCE Phase 2b trial was conducted in the first 328 subjects who reached their six-month follow-up visit. […] In the two highest dose groups, at least 50% of patients with elevated baseline Alanine transaminase (ALT) or Aspartate Aminotransferase (AST) improved into the normal range at six months, as shown in Table 3.
# The subjects included in this interim analysis had significant liver disease, as established by liver biopsy, with an average NAS at baseline of 5.3. […] Overall, baseline characteristics were well-balanced across treatment groups.
# [3] = effect size for a change of 20 in MSDC-0602K Dose, multivariable model with dose added
# [4] = effect size for a change of 20 in MSDC-0602K Dose, univariable model
structure (smiles),measurement,setting,value
COc1cccc(C(=O)COc2ccc(CC3SC(=O)NC3=O)cc2)c1 (stereo not shown) [MSDC-0602K],"Effect Size, change from baseline in steatosis, Multivariable Model","[1]; MSDC-0602K Dose, multivariable model with dose added, size of change not given",−0.03
same,Effect Size for a change of 20 in MSDC-0602K Dose; outcome change from baseline in fibrosis,[1]; Multivariable model,−0.01
same,Effect Size for change of 20 in MSDC-0602K Dose; outcome NAS,[1]; Multivariable model,−0.03
same,Effect Size for a change of 20 in MSDC-0602K Dose; outcome change from baseline in fibrosis,[1]; Univariable Model,−0.02
same,"Effect Size, change from baseline in ballooning, Multivariable Model",[1]; [3],−0.02
same,"Effect Size, change from baseline in inflammation, Multivariable Model",[1]; [3],0.01
same,"Effect Size, change from baseline in ballooning, Univariable Model",[1]; [4],−0.01
same,"Effect Size, change from baseline in inflammation, Univariable Model",[1]; [4],−0.01
same,"Effect Size, change from baseline in steatosis, Univariable Model",[1]; [4],−0.03
same,Peripheral edema present,[2]; 62.5 mg,7.80%
same,Percentage of patients with high baseline ALT who returned to normal range,"[2]; 62.5 mg, six months",29%
same,Percentage of patients with high baseline AST who returned to normal range,"[2]; 62.5 mg, six months",36%
same,Placebo-corrected reduction in ALT,"[2]; 125 mg cohort, six months",14.3 U/L
same,Placebo-corrected reduction in AST,"[2]; 125 mg cohort, six months",7.9 U/L
same,Peripheral edema present,[2]; 125 mg,13.50%
same,Percentage of patients with high baseline ALT who returned to normal range,"[2]; 125 mg, six months",60%
same,Percentage of patients with high baseline AST who returned to normal range,"[2]; 125 mg, six months",50%
same,Placebo-corrected reduction in ALT,"[2]; 250 mg cohort, six months",10.6 U/L
same,Placebo-corrected reduction in AST,"[2]; 250 mg cohort, six months, not significant",4 U/L
same,Peripheral edema present,[2]; 250 mg,11.10%
same,Percentage of patients with high baseline ALT who returned to normal range,"[2]; 250 mg, six months",56%
same,Percentage of patients with high baseline AST who returned to normal range,"[2]; 250 mg, six months",52%
same,"fasting glucose, HbA1c, insulin levels, and HOMA-IR","[2]; all subjects, 125 mg and 250 mg doses, six months",statistically significant improvements
same,Adiponectin,"[2]; all treatment cohorts, dose dependent, six months",increased significantly
same,overall adverse event rates,[2]; placebo and all doses,similar
same,effect on lipids,[2]; six months,neutral effect
same,patients with elevated baseline ALT or AST improved into the normal range,"[2]; two highest dose groups, six months",at least 50%
same,C-Reactive Protein levels,"[2]; two lowest doses, six months",decrease
